Experimental findings from US10800754B2, “Heterocyclic amide compound” (TAKEDA PHARMACEUTICAL COMPANY LIMITED, priority 2016, dated 2020) are described below.

The target of one test is T1, human PRS protein (Homo sapiens, UniProt P07814).
T1 construct: to construct His-Avi-hEPRS (998-1512) expression plasmid; His tag (N); Avi tag (N); TEV cleavage site (ENLYFQ/GS, encoded by forward primer hEPRS-TEV-NheF) (N); made in house; host or cells: E. coli BL21(DE3)
T1 sequence (P07814 998-1512): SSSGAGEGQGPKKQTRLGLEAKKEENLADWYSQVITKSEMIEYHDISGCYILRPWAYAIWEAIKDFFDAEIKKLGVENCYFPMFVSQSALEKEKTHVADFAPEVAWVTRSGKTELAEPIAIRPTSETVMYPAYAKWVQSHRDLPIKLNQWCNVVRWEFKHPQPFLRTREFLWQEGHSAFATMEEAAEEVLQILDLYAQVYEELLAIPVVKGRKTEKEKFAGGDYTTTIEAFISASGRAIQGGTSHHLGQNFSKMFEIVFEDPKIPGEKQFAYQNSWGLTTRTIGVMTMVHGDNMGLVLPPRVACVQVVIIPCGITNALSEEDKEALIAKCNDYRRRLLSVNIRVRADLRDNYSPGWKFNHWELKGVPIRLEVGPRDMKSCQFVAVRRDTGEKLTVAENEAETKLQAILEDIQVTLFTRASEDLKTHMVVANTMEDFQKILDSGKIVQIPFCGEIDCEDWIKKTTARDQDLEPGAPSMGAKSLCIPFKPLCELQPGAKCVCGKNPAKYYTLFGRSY
Description: PRS inhibitory activity (ATP/[32P]pyrophosphate exchange enzyme reaction). In kind it is biochemical. The following applies: 300 nM test compound; recombinant human PRS (EPRS 998-1512); read-out: inhibitory rate (%) of PRS. The method, boiled down:
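His-Avi-tagged human EPRS catalytic domain (998-1512), E. coli-expressed, was preincubated 60 min with compound (enzyme added as 40 nM solution) in Tris pH 7.5, KCl, DTT, Tween 20 and MgCl2. The substrate solution contained 300 μM ATP, 160 μM L-proline, and 400 μM pyrophosphate with [32P]pyrophosphate; reaction ran 30 min at room temperature. Charcoal-captured label was counted, with enzyme-free wells taken as 100% inhibition.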

In test [1] the test system is human ovarian cancer cell A2780. Description: proliferation inhibitory activity against A2780 cells (CellTiter-Glo). Type of test: cell-based. To be noted: A2780, 72 h, 1 μM test compound, 3 days of culture, read-out: proliferation inhibitory rate (%) of A2780 cells. The method, then: The proliferation inhibitory activity of the compound of the present invention against human ovarian cancer cell A2780 was evaluated by the following method.
Human ovarian cancer cells A2780 were seeded in a 384 well culture plate at 1000 cells in 30 μL of medium per well by using RPMI-1640 medium (Wako Pure Chemical Industries, Ltd.) containing 10% fetal bovine serum and penicillin/streptomycin. The next day, 10 μL of RPMI-1640 medium containing the test compound was added to the cells. After 3 days of culture, 20 μL of CellTiter-Glo Luminescent Cell Viability Assay solution (Promega, Fitchburg, Wis., US) was added. The luminescence signal was measured using EnVision (PerkinElmer, Waltham, Mass., US) and the inhibitory rate (%) of the test compound was calculated with a well free of seeding of cell as 100% inhibition.
In general terms: Cellular ATP, detected with luciferase, serves as a proxy for viable cell number.

`COCCn1cc(-c2cccc(CC(=O)Nc3cc(N4CC[C@@](C#N)(C5CC5)C4=O)ccn3)c2)cn1` [Example 70, N-(4-((3S)-3-cyano-3-cyclopropyl-2-oxopyrrolidin-1-yl)pyridin-2-yl)-2-(3-(1-(2-methoxyethyl)-1H-pyrazol-4-yl)phenyl)acetamide]: the inhibition at 0.3 µM at human PRS protein was found to be 99%. Further, in test [1], the inhibition at 1 µM was determined as 58%.

`N#CCCCn1cc(-c2cccc(CC(=O)Nc3cc(N4CC[C@@](C#N)(C5CC5)C4=O)ccn3)c2)cn1` [Example 71, N-(4-((3S)-3-cyano-3-cyclopropyl-2-oxopyrrolidin-1-yl)pyridin-2-yl)-2-(3-(1-(3-cyanopropyl)-1H-pyrazol-4-yl)phenyl)acetamide]: on human PRS protein, the inhibition at 0.3 µM stood at 99%. Besides, the inhibition at 1 µM in test [1] came out at 69%.

Take `N#C[C@@]1(C2CC2)CCN(c2ccnc(NC(=O)Cc3cccc(-c4cnn(CC5CCC5)c4)c3)c2)C1=O` [Example 72, N-(4-((3S)-3-cyano-3-cyclopropyl-2-oxopyrrolidin-1-yl)pyridin-2-yl)-2-(3-(1-(cyclobutylmethyl)-1H-pyrazol-4-yl)phenyl)acetamide]: on human PRS protein, the inhibition at 0.3 µM amounted to 98%. Also, the inhibition at 1 µM in test [1] was determined as 65%.

On to `COCCCn1cc(-c2cccc(CC(=O)Nc3cc(N4CC[C@@](C#N)(C5CC5)C4=O)ccn3)c2)cn1` [Example 74, N-(4-((3S)-3-cyano-3-cyclopropyl-2-oxopyrrolidin-1-yl)pyridin-2-yl)-2-(3-(1-(3-methoxypropyl)-1H-pyrazol-4-yl)phenyl)acetamide], for which the inhibition at 0.3 µM on human PRS protein was 98%. Moreover, in test [1], the inhibition at 1 µM was 62%.

`CC1(Cn2cc(-c3cccc(CC(=O)Nc4cc(N5CC[C@@](C#N)(C6CC6)C5=O)ccn4)c3)cn2)COC1` [Example 77, N-(4-((3S)-3-cyano-3-cyclopropyl-2-oxopyrrolidin-1-yl)pyridin-2-yl)-2-(3-(1-((3-methyloxetan-3-yl)methyl)-1H-pyrazol-4-yl)phenyl)acetamide]: the inhibition at 0.3 µM at human PRS protein came out at 98%. Moreover, the inhibition at 1 µM in test [1] is 63%.

In the case of `N#C[C@@]1(C2CC2)CCN(c2ccnc(NC(=O)Cc3cccc(-c4cnn(CC5CC5(F)F)c4)c3)c2)C1=O` (stereo partly drawn) [Example 78, N-(4-((3S)-3-cyano-3-cyclopropyl-2-oxopyrrolidin-1-yl)pyridin-2-yl)-2-(3-(1-((2,2-difluorocyclopropyl)-methyl)-1H-pyrazol-4-yl)phenyl)acetamide], at human PRS protein, the inhibition at 0.3 µM turned out to be 100%. The inhibition at 1 µM in test [1] was found to be 80%.

Take `N#C[C@@]1(C2CC2)CCN(c2ccnc(NC(=O)Cc3cccc(-c4cnn(Cc5ccccc5)c4)c3)c2)C1=O` [Example 79, 2-(3-(1-benzyl-1H-pyrazol-4-yl)phenyl)-N-(4-((3S)-3-cyano-3-cyclopropyl-2-oxopyrrolidin-1-yl)pyridin-2-yl)acetamide]: the inhibition at 0.3 µM on human PRS protein was determined as 100%. In test [1], the inhibition at 1 µM was 65%.

As for `N#C[C@@]1(C2CC2)CCN(c2ccnc(NC(=O)Cc3cccc(-c4cnn(CC5CCCCO5)c4)c3)c2)C1=O` (stereo partly drawn) [Example 83, N-(4-((3S)-3-cyano-3-cyclopropyl-2-oxopyrrolidin-1-yl)pyridin-2-yl)-2-(3-(1-(tetrahydro-2H-pyran-2-ylmethyl)-1H-pyrazol-4-yl)phenyl)acetamide], the inhibition at 0.3 µM on human PRS protein is 99%. Moreover, the inhibition at 1 µM in test [1] was found to be 58%.

Regarding `N#C[C@@]1(C2CC2)CCN(c2ccnc(NC(=O)Cc3cccc(-c4cnn(CC5CCOCC5)c4)c3)c2)C1=O` [Example 84, N-(4-((3S)-3-cyano-3-cyclopropyl-2-oxopyrrolidin-1-yl)pyridin-2-yl)-2-(3-(1-(tetrahydro-2H-pyran-4-ylmethyl)-1H-pyrazol-4-yl)phenyl)acetamide], the inhibition at 0.3 µM on human PRS protein turned out to be 97%. Moreover, the inhibition at 1 µM in test [1] is 55%.

Take `N#C[C@@]1(C2CC2)CCN(c2ccnc(NC(=O)Cc3cccc(-c4cnn(CC5COCCO5)c4)c3)c2)C1=O` (stereo partly drawn) [Example 85, N-(4-((3S)-3-cyano-3-cyclopropyl-2-oxopyrrolidin-1-yl)pyridin-2-yl)-2-(3-(1-(1,4-dioxan-2-ylmethyl)-1H-pyrazol-4-yl)phenyl)acetamide]: the inhibition at 0.3 µM on human PRS protein is 99%. Also, the inhibition at 1 µM in test [1] amounted to 54%.

On to `N#C[C@@]1(C2CC2)CCN(c2ccnc(NC(=O)Cc3cccc(-c4cnn(CC5CC(F)(F)C5)c4)c3)c2)C1=O` [Example 87, N-(4-((3S)-3-cyano-3-cyclopropyl-2-oxopyrrolidin-1-yl)pyridin-2-yl)-2-(3-(1-((3,3-difluorocyclobutyl)-methyl)-1H-pyrazol-4-yl)phenyl)acetamide], for which the inhibition at 0.3 µM on human PRS protein stood at 100%. Also, in test [1], the inhibition at 1 µM came to 74%.

Regarding `N#C[C@@]1(C2CC2)CCN(c2ccnc(NC(=O)Cc3cccc(-c4cnn(CCCC(F)(F)F)c4)c3)c2)C1=O` [Example 90, N-(4-((3S)-3-cyano-3-cyclopropyl-2-oxopyrrolidin-1-yl)pyridin-2-yl)-2-(3-(1-(4,4,4-trifluorobutyl)-1H-pyrazol-4-yl)phenyl)acetamide], the inhibition at 0.3 µM on human PRS protein was found to be 98%. The inhibition at 1 µM in test [1] came to 61%.

With `CC(C)n1cc(-c2cccc(CC(=O)Nc3cc(N4CC[C@@](C#N)(C5CC5)C4=O)ccn3)c2)cn1` [Example 93, N-(4-((3S)-3-cyano-3-cyclopropyl-2-oxopyrrolidin-1-yl)pyridin-2-yl)-2-(3-(1-isopropyl-1H-pyrazol-4-yl)phenyl)acetamide], at human PRS protein, the inhibition at 0.3 µM turned out to be 100%. Moreover, the inhibition at 1 µM in test [1] turned out to be 76%.

For `N#C[C@@]1(C2CC2)CCN(c2ccnc(NC(=O)Cc3cccc(-c4cnn(C5CCOC5)c4)c3)c2)C1=O` (stereo partly drawn) [Example 94, N-(4-((3S)-3-cyano-3-cyclopropyl-2-oxopyrrolidin-1-yl)pyridin-2-yl)-2-(3-(1-(tetrahydrofuran-3-yl)-1H-pyrazol-4-yl)phenyl)acetamide], the inhibition at 0.3 µM on human PRS protein is 100%. Further, the inhibition at 1 µM in test [1] came out at 74%.

Turning to `N#C[C@@]1(C2CC2)CCN(c2ccnc(NC(=O)Cc3cccc(-c4cnn(CC(F)(F)C(F)F)c4)c3)c2)C1=O` [Example 95, N-(4-((3S)-3-cyano-3-cyclopropyl-2-oxopyrrolidin-1-yl)pyridin-2-yl)-2-(3-(1-(2,2,3,3-tetrafluoropropyl)-1H-pyrazol-4-yl)phenyl)acetamide], at human PRS protein, the inhibition at 0.3 µM turned out to be 99%. Besides, the inhibition at 1 µM in test [1] was 70%.

Regarding `Cn1cc(-c2cc(F)cc(CC(=O)Nc3cc(N4CC[C@@](C#N)(C5CC5)C4=O)cc(Br)n3)c2)cn1` [Example 97, N-(6-bromo-4-((3S)-3-cyano-3-cyclopropyl-2-oxopyrrolidin-1-yl)pyridin-2-yl)-2-(3-fluoro-5-(1-methyl-1H-pyrazol-4-yl)phenyl)acetamide], at human PRS protein, the inhibition at 0.3 µM worked out at 100%. For the same compound, the inhibition at 1 µM in test [1] came out at 97%.

Consider `Cc1cc(N2CC[C@@](C#N)(C3CC3)C2=O)cc(NC(=O)Cc2cccc(-c3cnn(C)c3C)c2)n1` [Example 98, N-(4-((3S)-3-cyano-3-cyclopropyl-2-oxopyrrolidin-1-yl)-6-methylpyridin-2-yl)-2-(3-(1,5-dimethyl-1H-pyrazol-4-yl)phenyl)acetamide], for which the inhibition at 0.3 µM on human PRS protein amounted to 98%. Moreover, the inhibition at 1 µM in test [1] was determined as 69%.

Regarding `CCc1cc(N2CC[C@@](C#N)(C3CC3)C2=O)cc(NC(=O)Cc2cc(F)cc(-c3cnn(C)c3)c2)n1` [Example 99, N-(4-((3S)-3-cyano-3-cyclopropyl-2-oxopyrrolidin-1-yl)-6-ethylpyridin-2-yl)-2-(3-fluoro-5-(1-methyl-1H-pyrazol-4-yl)phenyl)acetamide], the inhibition at 0.3 µM at human PRS protein came to 99%. In addition, the inhibition at 1 µM in test [1] is 70%.

Consider `CC(C)(O)CCn1cc(-c2cccc(CC(=O)Nc3cc(N4CC[C@@](C#N)(C5CC5)C4=O)ccn3)c2)cn1` [Example 100, N-(4-((3S)-3-cyano-3-cyclopropyl-2-oxopyrrolidin-1-yl)pyridin-2-yl)-2-(3-(1-(3-hydroxy-3-methylbutyl)-1H-pyrazol-4-yl)phenyl)acetamide], for which, at human PRS protein, the inhibition at 0.3 µM worked out at 101%. For the same compound, the inhibition at 1 µM in test [1] was found to be 84%.
